Test results taken from the Deep4Chem optical property database.

Assay: solvent given as SMILES

`N#Cc1ccc(/C=C2\OC(=O)c3cc(N)ccc32)cc1` showed an emission maximum (in CC#N) of 485.44 nm, an emission maximum (in CC(C)=O) of 482.16 nm and an emission maximum (in CC(C)CO) of 502.26 nm. The emission maximum (in CC(C)O) was 496.03 nm, the emission maximum (in CCCO) was 498.26 nm and the emission maximum (in CCO) was 502.77 nm. It also gave an emission maximum (in CCOC(C)=O) of 467.73 nm, an emission maximum (in CCOCC) of 444.84 nm and an emission maximum (in CO) of 503.52 nm.
`CC[N+]1(CC)CN2C(=N1)C(C(=O)O)=Cc1cc(C)ccc12` showed an emission maximum (in O) of 469 nm.
With `CCN(CC)c1ccc2cc(/C=C/C3=CC(/C=C/c4cc5ccc(N(CC)CC)cc5oc4=O)=[O+][B-](F)(F)O3)c(=O)oc2c1` the emission maximum (in CC#N) was 725 nm, the emission maximum (in CC(C)=O) was 710 nm and the emission maximum (in CCOC(C)=O) was 659 nm. For the same compound, the emission maximum (in CN(C)C=O) was 729 nm, the emission maximum (in CS(C)=O) was 741 nm and the emission maximum (in Cc1ccccc1) was 626 nm. It also gave an emission maximum (in ClC(Cl)Cl) of 669 nm and an emission maximum (in ClCCl) of 705 nm.
Work on `CCCCN(CCCC)c1ccc(C#Cc2cc(C#Cc3c(F)c(F)c(F)c(F)c3F)c(C#Cc3ccc(N(CCCC)CCCC)cc3)cc2C#Cc2c(F)c(F)c(F)c(F)c2F)cc1` yielded an emission maximum (in ClCCl) of 563 nm and an emission maximum (in c1ccccc1) of 534 nm.
`Nc1ccc2c(c1)Cc1ccccc1-2` showed an emission maximum (in C1CCCCC1) of 347 nm, an emission maximum (in C1COCCO1) of 363 nm and an emission maximum (in CC#N) of 363 nm. For the same compound, the emission maximum (in CC(C)O) was 369 nm, the emission maximum (in CCCCCC) was 344 nm and the emission maximum (in CCCCCCC) was 344 nm. The emission maximum (in CCO) was 368 nm, the emission maximum (in CCOC(C)=O) was 360 nm and the emission maximum (in CCOCC) was 349 nm. The emission maximum (in CO) was 367 nm, the emission maximum (in ClCCl) was 353 nm and the emission maximum (in O) was 377 nm.
Compound `CCCCCCN1C(=O)c2cccc3cc(/N=C\c4ccc(N5CCOCC5)cc4)cc(c23)C1=O` has an emission maximum (in ClC(Cl)Cl) of 557 nm.
In the case of `[NH3+]C(Cc1ccc(O)cc1)C(=O)[O-]` (stereo not given), the emission maximum (in O) is reported as 304 nm.
`O=[N+]([O-])c1ccc(C#Cc2ccc3ccccc3c2)cc1` gave an emission maximum (in ClC(Cl)Cl) of 536 nm and an emission maximum (in ClCCl) of 546 nm.
With `CC1=CC(C)=[N+]2C1=C(c1ccc(I)cc1)c1c(C)cc(C)n1[B-]2(Oc1ccc(Cl)cc1)Oc1ccc(Cl)cc1` the emission maximum (in ClC(Cl)Cl) was 519.7 nm.
`c1ccc(-c2nc(-c3ccccc3)nc(-n3c4ccccc4c4cccc(-n5c6ccccc6c6ccccc65)c43)n2)cc1` showed an emission maximum (in C1CCOC1) of 477.86 nm and an emission maximum (in Cc1ccccc1) of 459.26 nm.
`N#Cc1cc2ccc(cc2)c2cccc3cccc(c4ccc(cc4)cc(C#N)c4ccc(cc4)c4cccc5cccc(c6ccc1cc6)c54)c32` gave an emission maximum (in Cc1ccccc1) of 496 nm.
For `Nc1ccc2c(-c3ccc(C(=O)CN4C(=O)CCC4=O)cc3C(=O)[O-])c3ccc(=[NH2+])c(S(=O)(=O)[O-])c-3oc2c1S(=O)(=O)[O-]`, the emission maximum (in O) was 519 nm.
Work on `N#C/C(=C\c1ccc(Cl)cc1)c1nc(-c2ccccc2)c(-c2ccccc2)s1` yielded an emission maximum (in CC#N) of 501 nm.
Compound `C/C(=C\c1ccccc1)c1nc2ccccc2o1` has an emission maximum (in C1CCCCC1) of 370 nm and an emission maximum (in CO) of 380 nm.
`O=C1c2cc(F)ccc2-c2cnccc21` showed an emission maximum (in CC#N) of 540.43 nm and an emission maximum (in CCCCCC) of 486.26 nm.
Compound `CN(C)c1ccc(/C=C/C=C2\CC/C(=C\C=C\c3ccc(N(C)C)cc3)C2=O)cc1` has an emission maximum (in C1CCCCC1) of 500 nm, an emission maximum (in CC#N) of 717 nm and an emission maximum (in CC(C)=O) of 694 nm. The emission maximum (in CC(C)O) was 718 nm, the emission maximum (in CCCCCC) was 496 nm and the emission maximum (in CCCCO) was 739 nm. For the same compound, the emission maximum (in CCCO) was 740 nm, the emission maximum (in CCO) was 744 nm and the emission maximum (in CCOC(C)=O) was 644 nm. The emission maximum (in CCOCC) was 586 nm, the emission maximum (in CN(C)C=O) was 715 nm and the emission maximum (in CO) was 735 nm. The emission maximum (in CS(C)=O) was 727 nm, the emission maximum (in Cc1ccccc1) was 553 nm and the emission maximum (in ClC(Cl)(Cl)Cl) was 537 nm. It also gave an emission maximum (in ClCCl) of 672 nm, an emission maximum (in OCC(F)(F)F) of 764 nm and an emission maximum (in S=C=S) of 568 nm. It also gave an emission maximum (in c1ccccc1) of 567 nm and an emission maximum (in c1ccncc1) of 681 nm.
Work on `O=c1c2ccccc2[nH]c2ccccc12` yielded an emission maximum (in CS(C)=O) of 408 nm and an emission maximum (in O) of 416 nm.
With `CC1=[O+][B-]2(OC(=O)C(=O)O2)OC(c2c3ccccc3cc3ccccc23)=C1` the emission maximum (in CC#N) was 527 nm and the emission maximum (in ClC(Cl)(Cl)Cl) was 514 nm.
Work on `Cc1cc(-c2ccc(C(C)(C)C)cc2)c2nsnc2c1-c1ccc(C(C)(C)C)cc1` yielded an emission maximum (in ClCCl) of 489 nm.
`CCn1c2ccc(/C=C(\C#N)c3ccccc3)cc2c2cc(/C=C(\C#N)c3ccccc3)ccc21` showed an emission maximum (in ClCCl) of 412 nm.
For `COC(=O)/C(C#N)=c1\s/c(=c2/s/c(=C(/C#N)C(=O)OC)c3cc(-c4ccc(F)cc4)sc23)c2sc(-c3ccc(F)cc3)cc12`, the emission maximum (in Cc1ccccc1) was 640 nm.
With `CCOC(=O)c1c(-c2cc3ccc(OCC=C(C)C)cc3oc2=O)nn(-c2cccc(Cl)c2)c1C(=O)OCC` the emission maximum (in ClCCl) was 426 nm.
With `CC1=C(C)c2cccc3c2c(cc2nc4ccccc4nc23)O1` the emission maximum (in ClCCl) was 563 nm.
`c1ccc(-c2nc(-c3ccc(-c4ccc(-n5c6ccccc6c6ccccc65)cc4)cn3)oc2-c2ccccc2)cc1` gave an emission maximum (in C1CCOC1) of 411 nm, an emission maximum (in C1COCCO1) of 406 nm and an emission maximum (in CC#N) of 415 nm. It also gave an emission maximum (in CC(C)=O) of 413 nm, an emission maximum (in CC(C)OC(C)C) of 398 nm and an emission maximum (in CCCCCC) of 392 nm. The emission maximum (in CCCCOCCCC) was 399 nm, the emission maximum (in CCN(CC)CC) was 396 nm and the emission maximum (in CCOC(C)=O) was 408 nm. It also gave an emission maximum (in CCOCC) of 400 nm, an emission maximum (in Cc1ccccc1) of 404 nm and an emission maximum (in c1ccccc1) of 405 nm.
Work on `CCOC(=O)c1c2c3c(ccc(OC)c3c3cc4ccccc4cc13)N(C)C2=O` yielded an emission maximum (in CC#N) of 413 nm.
`O=c1ccc2cc3c(cc2o1)OCC3` showed an emission maximum (in CC(C)O) of 400 nm, an emission maximum (in CCO) of 402 nm and an emission maximum (in CCOCC) of 397 nm. For the same compound, the emission maximum (in CO) was 405 nm and the emission maximum (in O) was 410 nm.
`CC(=O)c1c(N[C@@H](Cc2ccc(O)cc2)C(=O)O)c2ccc(N(C)C)cc2oc1=O` gave an emission maximum (in ClCCl) of 415 nm.
`CC(C)(C)c1ccc2c(c1)c1cc(C(C)(C)C)ccc1n2-c1ccc(-n2c3ccc(C(C)(C)C)cc3c3cc(C(C)(C)C)ccc32)c(-c2nccnc2C#N)c1` gave an emission maximum (in Cc1ccccc1) of 503 nm and an emission maximum (in c1cc(-n2c3ccccc3c3ccccc32)cc(-n2c3ccccc3c3ccccc32)c1) of 493 nm.
Work on `c1ccc(-c2nc(-c3ccccc3)nc(-c3ccc(-n4c5ccc(-n6c7ccccc7c7ccccc76)cc5c5ccc6c(c7ccccc7n6-c6ccccc6)c54)cc3)n2)cc1` yielded an emission maximum (in Cc1ccccc1) of 463.87 nm.
Compound `Cc1ccc2c(c1)C1(c3ccccc3-c3ccccc31)c1cc(C)ccc1N2c1ccc2c(c1)Oc1ccccc1P2(=S)c1ccccc1` (stereo not given) has an emission maximum (in Cc1ccccc1) of 443.09 nm.
For `CCN(CC)c1ccc2cc(-c3nc4c5cccc6ccc7cccc(c7c65)c4n3-c3ccc(C(C)(C)C)cc3)c(=O)oc2c1`, the emission maximum (in ClCCl) was 519 nm.
For `CCc1c(C)[nH]c(C2=[N+]3C(=Cc4c(C)cc(C)n4[B-]3(F)F)c3ccccc32)c1C`, the emission maximum (in C1CCOC1) was 635 nm, the emission maximum (in CC#N) was 632 nm and the emission maximum (in CCCCCC) was 630 nm. It also gave an emission maximum (in CO) of 631 nm, an emission maximum (in Cc1ccccc1) of 642 nm and an emission maximum (in ClCCl) of 640 nm.
For `CCC1(CC)c2cc(-c3ccc(N(c4ccc(-c5ccc6c(c5)C(CC)(CC)c5cc(N7c8ccccc8C(C)(C)c8ccccc87)ccc5-6)cc4)c4ccc(-c5ccc6c(c5)C(CC)(CC)c5cc(N7c8ccccc8C(C)(C)c8ccccc87)ccc5-6)cc4)cc3)ccc2-c2ccc(N3c4ccccc4C(C)(C)c4ccccc43)cc21`, the emission maximum (in ClC(Cl)Cl) was 431 nm.
Work on `Cc1ccc(N(c2ccc(C)cc2)c2ccc(-c3cc4c(cc(-c5ccc(N(c6ccc(C)cc6)c6ccc(C)cc6)cc5)c5nsnc54)c4nsnc34)cc2)cc1` yielded an emission maximum (in Cc1ccccc1) of 659 nm and an emission maximum (in ClCCl) of 683 nm.
With `Cc1ccc2cc(C)ccc2c1` the emission maximum (in C1CCCCC1) was 342.82 nm.
In the case of `N#Cc1nc(N(Cc2ccc(I)cc2)Cc2ccc(I)cc2)c(C#N)nc1N(Cc1ccc(I)cc1)Cc1ccc(I)cc1`, the emission maximum (in ClC(Cl)Cl) is reported as 574 nm.
For `c1ccc(C2CSC(c3c4ccc(=[N+]5CCCCC5)cc-4oc4cc(N5CCCCC5)ccc34)SC2)cc1` (stereo not given), the emission maximum (in CO) was 606.35 nm.
For `CC(C)c1ccc(-c2nc(-c3ccccc3)c3ccccn23)cc1`, the emission maximum (in CC#N) was 478 nm.
In the case of `CCN(CC)c1ccc(C=Cc2nc3nc4ccccc4nc3s2)cc1`, the emission maximum (in CO) is reported as 630 nm.
`CCOC(=O)CN1C(=O)C2=C(c3ccccc3)N(CC(=O)OCC)C(=O)C2=C1c1ccccc1` showed an emission maximum (in CC#N) of 512 nm, an emission maximum (in CS(C)=O) of 519 nm and an emission maximum (in Cc1ccccc1) of 520 nm.
`CCC1=C(C)C2=Cc3c4ccccc4c4n3[B-](c3ccccc3)(Oc3ccccc3-4)[N+]2=C1C` (stereo not given) showed an emission maximum (in CC#N) of 634 nm, an emission maximum (in CCCCCC) of 636 nm and an emission maximum (in Cc1ccccc1) of 640 nm. For the same compound, the emission maximum (in ClCCl) was 638 nm.
With `Cc1ccsc1-c1cc2c3cc(-c4sccc4C)c4nc(C(F)(F)C(F)(F)C(F)(F)F)nc5c(-c6sccc6C)cc(c6cc(-c7sccc7C)c7nc(C(F)(F)C(F)(F)C(F)(F)F)nc1c7c26)c3c45` the emission maximum (in C1CCOC1) was 627 nm.
`CCCCCCC1(CCCCCC)c2cc(-c3ccc(-c4ccc(-c5ccc(-c6ccc7c(c6)C(CCCCCC)(CCCCCC)c6cc(-n8c9ccc(-n%10c%11ccccc%11c%11ccccc%11%10)cc9c9cc(-n%10c%11ccccc%11c%11ccccc%11%10)ccc98)ccc6-7)s5)c5nsnc45)s3)ccc2-c2ccc(-n3c4ccc(-n5c6ccccc6c6ccccc65)cc4c4cc(-n5c6ccccc6c6ccccc65)ccc43)cc21` showed an emission maximum (in ClCCl) of 608 nm.
Compound `C(=C\c1ccc(Nc2ccccc2)cc1)/c1ccccc1` has an emission maximum (in CC#N) of 436 nm and an emission maximum (in CCCCCC) of 378 nm.
`Cc1sc(Cl)cc1-c1nc(-c2ccc(Cl)cc2)[nH]c1-c1cc(Cl)sc1C` gave an emission maximum (in CC#N) of 390 nm.
Compound `CC(C)c1cccc(C(C)C)c1N1C(=O)c2ccc3c(-c4ccc(C(=O)O)cc4)c4c5ccc6c7c(ccc(c(-c8ccc(C(=O)O)cc8)c4c4ccc(c2c34)C1=O)c75)C(=O)N(c1c(C(C)C)cccc1C(C)C)C6=O` has an emission maximum (in ClCCl) of 682 nm.
`c1ccc([B-]2(c3ccccc3)Oc3ccc4ccccc4c3-c3c4ccccc4cn[n+]32)cc1` showed an emission maximum (in Cc1ccccc1) of 555 nm.
`CN1c2ccc3c(c2-c2ccccc2S1(=O)=O)-c1ccccc1S(=O)(=O)N3C` showed an emission maximum (in ClCCl) of 443 nm.
`F[Si-](F)(c1ccccc1)(c1c2ccccc2cc2ccccc12)c1c2ccccc2cc2ccccc12` showed an emission maximum (in C1CCOC1) of 395 nm.
Compound `CC1=[N+]2C(=C(c3ccccc3)c3ccc(/C=C/c4ccc(C(=C(c5ccccc5)c5ccccc5)c5ccccc5)cc4)n3[B-]2(F)F)C=C1` has an emission maximum (in C1CCOC1) of 610 nm.
